Consider one compound from patent US9045450B2, “Method for chemical synthesis of antrocin and use thereof for suppressing non-small cell lung cancer” (KAIYEW INVESTMENT CORP., priority 2011, dated 2015).

Entries after “also recorded” stand apart in the source; their conditions may differ.

Data set [1] relates to human non-small cell lung cancer cells (CL1-0, CL1-5, H1975, H441, PC9, A549). Briefly: Cytotoxicity / cell proliferation, sulforhodamine B. The format is cell-based. To be noted: NSCLC cell lines, antrocin 0.5-10 μM, two days, FIG. 4 (A). As for the experimental part:
(§1) Human lung cancer cell lines (CL1-0, CL1-5, H1975, H441, PC9, A549) and human bronchial epithelia cell lines (BEAS-2B) were obtained from the Institute of Clinical Medicine, Taipei Medical University. The cells were grown and maintained in DMEM medium (Dulbecco's Modified Eagle's Medium and RPMI basal medium supplemented with 10% fetal bovine serum, 2 mM glutamine, […] streptomycin, and 100 U/ml penicillin in a wet incubator at 5% CO2.
(§2) Lung cancer cell were grown in a medium supplemented with 10% fetal bovine serum until the cells grew to approximately 80% of their full-blown size. Old culture solution was drained, the lung cancer cells were washed with PBS buffer solution (phosphate buffered saline), and 10 ml of serum-free culture medium was added. Different pharmaceutical drugs were added according to experimental purposes, all reactions were carried out in an incubator at 37° C.
(§3) Human lung cancer cells (CL1-0, CL1-5, H1975, H441, PC9, A549) and human bronchial epithelial cells (BEAS-2B) were seeded in 96-well culture plates (2000 cells/well) and incubated overnight in 100 μl complete DMEM. […] After two days, total number of human cells in each well was measured using sulforhodamine B (a fluorescent protein dye). […] The optical density was measured at 562 nm by a microtiter plate detector. […]

The subject of data set [2] is H1975 cells. Described as above. The format is cell-based, human. To be noted: H1975, antrocin 0.5-10 μM, two days, FIG. 4 (A). The protocol: as §1, §2, §3
The test system of data set [3] is H441 cells. Described as above. The format is cell-based, human. The note with it: H441, antrocin 0.5-10 μM, two days, FIG. 4 (A). The protocol:
as §1, §2, §3

Data set [4] deals with normal human bronchial epithelial cells (BEAS-2B). Briefly: Cytotoxicity, sulforhodamine B. It counts as cell-based. The note with it: antrocin 0.5-10 μM, two days, FIG. 4 (A). As for the experimental part: as §1
Human lung cancer cells (CL1-0, CL1-5, H1975, H441, PC9, A549) and human bronchial epithelial cells (BEAS-2B) were seeded in 96-well culture plates (2000 cells/well) and incubated overnight in 100 μl complete DMEM. Equal amount of complete DMEM sample containing 50 μl antrocin (0.5-10 μM) was placed in other wells of the culture plates. Further, 100 μl complete DMEM sample was also placed in wells as the control group. After two days, total number of human cells in each well was measured using sulforhodamine B (a fluorescent protein dye). Briefly, human cells were fixed in 10% trichloroacetic acid and stained with 0.4% sulforhodamine B. After being stained for 20 minutes, the human cells were washed with 1% acetic acid, and then sulforhodamine B, which was bound with human cells, was dissolved in 10 mM tris base. The optical density was measured at 562 nm by a microtiter plate detector. […]

Data set [5] relates to H1975 cells. Briefly: Apoptosis, flow cytometry. The note with it: H1975, antrocin treatment for 48 hours, FIG. 4 (B). The format is cell-based, human.
Data set [6] deals with H441 cells. Briefly: Apoptosis, flow cytometry. The format is cell-based, human. The note with it: H441, antrocin treatment for 48 hours, FIG. 4 (B).
In the next data set the test system is XIAP. Briefly: Protein expression in H441 cells (FIG. 6). It counts as cell-based, human. The source says:
(§4) The inhibitory effect of antrocin on protein expression is presented as relative multiple.Beta-actin protein was the internal reference (loading control).

In a further data set the test system is caspase-3 enzyme. Kind of data set: Protein expression in H441 cells (FIG. 6). It counts as cell-based, human. The note with it: increasing dose.
Source text: as §4

In another data set the test system is cyclin D1. Kind of data set: Protein expression in H441 cells (FIG. 6). The format is cell-based, human.
Source text: as §4

Another data set has as its system H441-L2G cells. Kind of data set: Lung tumorigenesis in vivo, bioluminescence imaging and survival. The note with it: for tumor growth: daily intraperitoneal injection. On the set-up: species or system non-obese diabetic/severe combined immunodeficient mice. The protocol:
(§5) […] cells (6×10^5/100 μl PBS) were intravenously injected into immunodeficient mice via lateral tail vein. Antrocin treatments (low dose of 5 mg/kg/day and high dose of 10 mg/kg/day) were performed by daily intraperitoneal injection into tumor-bearing mice over a period of four weeks. Weekly observations were performed and data were recorded for (A) VIS images, (B) Tumor growth, (C) Body weights, and (D) Survival curves.
(§6) The present invention further investigated anticancer effect of antrocin in vivo. H441-L2G cells expressing firefly luciferase and green fluorescent protein were implanted by intravenous injections via the lateral tail vein (6×10^5/100 μl PBS) into non-obese diabetic/severe combined immunodeficient mice. Daily intraperitoneal injections of antrocin (two groups of mice, a low dose of 5 mg/kg/day and a high dose of 10 mg/kg/day) were given over a period of four weeks to observe tumor growth.
Firefly luminescence genes (firefly luciferase) was introduced into H441 lung cancer stem cells by transgenesis, lung cancer cells (containing firefly luminescence genes) were then isolated from H441 lung cancer stem cells by FACS (Fluorescence-activated cell sorting) and implanted into immunodeficient mice subcutaneously or into the circulation system via the tail vein. IVIS imaging system (IVIS® Imaging System 200 Series, Xenogen) was used in the present embodiment for bioluminescent imaging. All mice were introduced with 150 mg/kg D-luciferin by intraperitoneal injection, after 10 minutes the mice were fixed in the darkroom of the IVIS200, the highly sensitive CCD camera of the IVIS 200 was used to detect the cold light radiated by firefly luminescence genes in H441 cancer cells. All mice were imaged for 120 seconds and the imaging time was shortened when the signal strength was saturated. All mice were anesthetized (2% isoflurane and 98% oxygen gas) and unconscious throughout the entire imaging process. Tumor sizes and signal strength radiated by the cold-light were compared and analyzed by using a software package of the IVI200. The inhibitory effect of antrocin on human lung cancer cells was assessed by using this bio-illumination-imaging system.
The present invention further investigated the anticancer effect of antrocin in vivo. H441-L2G cells expressing firefly luciferase and green fluorescent protein were implanted by intravenous injections via the lateral tail vein (6×10^5/100 μl PBS) into non-obese diabetic/severe combined immunodeficiency mice. Daily intraperitoneal injections of antrocin (two groups of mice, a small dose of 5 mg/kg/day and a large dose of 10 mg/kg/day) were given over a period of four weeks to observe tumor growth.

The nature of data set [7]: Body weight of tumor-bearing mice. To be noted: 5 and 10 mg/kg/day intraperitoneal, four weeks, FIG. 7 (C). It counts as in vivo, non-obese diabetic/severe combined immunodeficient mice. As for the experimental part: as §5, §6
The present invention further investigated the anticancer effect of antrocin in vivo. H441-L2G cells expressing firefly luciferase and green fluorescent protein were implanted by intravenous injections via the lateral tail vein (6×10^5/100 μl PBS) into non-obese diabetic/severe combined immunodeficiency mice. […]

The subject of another data set is breast cancer cells. To be noted: natural antrocin isolated from Antrodia; Rao et al., 2011; cited from earlier work.

Turning to `C=C1CC[C@H]2C(C)(C)CCC[C@@]23C(=O)OC[C@@H]13` [antrocin], in data set [1], the “inhibitory effect on cancer cell proliferation” value was “significant inhibitory effect”. Also, the “inhibition of cancer cell growth/proliferation” value with H1975 cells [2] and in the data set on H441 cells [3] was “most robust inhibitions” each time. The “cytotoxicity against normal human bronchial epithelial cells” value in data set [4] is recorded as “no cytotoxicity”. For the same compound, the “number of cells in early and late (final) stage of apoptosis” value was “increase in the number of cells in early and late stage of apoptosis in a dose-dependent fashion; also recorded: increased significantly in a dose-dependent fashion” in the data set on H1975 cells [5]; “increase in the number of cells in early and late stage of apoptosis in a dose-dependent fashion; also recorded: increased significantly in a dose-dependent fashion” in the data set with H441 cells [6]. For the same compound, the “inhibition of XIAP protein expression” value in the data set on XIAP is given as “dose-dependently inhibited”. In addition, in the data set with caspase-3 enzyme, the “activation of caspase enzyme 3” value was “markedly activated”. Further, in the data set on cyclin D1, the “inhibition of cyclin D1 protein expression” value is listed as “dose-dependently inhibited”. Besides, the “increase of median survival time” value with H441-L2G cells (at the end of the experiment (the fiftieth day)) is recorded as “at least 60%”. Further, the “mice that survived for longer than 50 days” value in the data set on H441-L2G cells (low dose 5 mg/kg/day) came to 75%. Also, the tumor growth entry is reported as “inhibited after two weeks in half of the mice” in the data set on H441-L2G cells (low dose 5 mg/kg/day, after two weeks) and “tumor growth was observed in most of these mice” with H441-L2G cells (low dose 5 mg/kg/day, third week). For the same compound, the median survival in the data set on H441-L2G cells (treated group, control group 28 days, FIG. 7 (D)) was above 50 days. Besides, the “body weight, treated group vs control group” value in [7] is “no significant difference”. For the same compound, in the data set with breast cancer cells, the “inhibition of cell proliferation in breast cancer cells” value is “inhibited the cell proliferation; also recorded: effectively inhibited cell proliferation”.
